According to patent US9683014B2, “Dipeptide mimetics of NGF and BDNF neurotrophins” (UCHREZHDENIE ROSSIISKOI AKADEMII MEDITSYNSKIKH NAUK …, priority 2009, dated 2017):
Where “and” joins values, the source holds several entries; their conditions need not be identical. Equal values may be shown once. Read-outs that look alike come from different tables or passages of the source. Marks after values point to notes of the source that are not given here.

Columns and labels:
HT-22 cells [1] = test system: HT-22 cells
Procedure: The determination of cell viability was carried out by MTT test. MTT is a water soluble tetrazolium salt of yellow color which readily permeates cells. In living cells, MTT is converted into water insoluble formazan crystals of violet color. At the end of an experiment the growth medium was replaced with an MTT solution (0.5 mg/ml) and incubated for 30 min at 37° C. and 5% CO2. The MTT solution was then removed from the wells and DMSO was added to dissolve the formazan precipitate. Then the optical density was measured using a Multiscan (Thermo) spectrophotometer at a wavelength of 600 nm.

Wistar rats = conditions: 1.0 mg/kg i.p. 24 h prior to scopolamine 1.0 mg/kg s.c.; FIG. 2.11
Procedure: Male Wistar rats weighing 190-220 g were used for this experiment. The test compound was administered intraperitoneally at a dose of 1.0 mg/kg at 24 hours prior to the scopolamine injection (1.0 mg/kg s.c.). The control group was treated with distilled water according to the same regimen. Scopolamine was injected 60 min before placing the animals in a T-shaped maze. Following a further 120 min the animals were subjected to testing in accordance with the original protocol (Deacon R. M. J., Rawlins J. N. P. T-maze alternation in the rodent. Nature Protocols, 2006, 1(1), 7-12).

HT-22 cells [2] = experiment: Oxidative stress (H2O2) model in cultured HT-22 cells (MTT test); type: cell-based, mouse
Procedure: To induce an oxidative stress, the cells were placed in a growth medium containing 5% FBS, then a freshly prepared H2O2 solution was added to a final concentration of 1.5 mM and incubated for 30 min at 37° C. and 5% CO2. Thereafter, the medium was replaced with a new one and the cells were cultured for 4 h under the same conditions.
The determination of cell viability was carried out by MTT test. […] At the end of an experiment the growth medium was replaced with an MTT solution (0.5 mg/ml) and incubated for 30 min at 37° C. and 5% CO2. The MTT solution was then removed from the wells and DMSO was added to dissolve the formazan precipitate. Then the optical density was measured using a Multiscan (Thermo) spectrophotometer at a wavelength of 600 nm.

tyrosine kinase A (TrkA) = target: T1, tyrosine kinase A (TrkA) (Mus musculus, UniProt Q3UFB7); experiment: Tyrosine kinase A phosphorylation in HT-22 cells (Western blot); type: cell-based; conditions: first minute of exposure
T1 construct: phosphorylation of tyrosine kinase A in cultured hippocampal neuronal cell line HT22; endogenous in cells; host or cells: HT-22 hippocampal neuronal cell line
T1 sequence (Q3UFB7 34-799): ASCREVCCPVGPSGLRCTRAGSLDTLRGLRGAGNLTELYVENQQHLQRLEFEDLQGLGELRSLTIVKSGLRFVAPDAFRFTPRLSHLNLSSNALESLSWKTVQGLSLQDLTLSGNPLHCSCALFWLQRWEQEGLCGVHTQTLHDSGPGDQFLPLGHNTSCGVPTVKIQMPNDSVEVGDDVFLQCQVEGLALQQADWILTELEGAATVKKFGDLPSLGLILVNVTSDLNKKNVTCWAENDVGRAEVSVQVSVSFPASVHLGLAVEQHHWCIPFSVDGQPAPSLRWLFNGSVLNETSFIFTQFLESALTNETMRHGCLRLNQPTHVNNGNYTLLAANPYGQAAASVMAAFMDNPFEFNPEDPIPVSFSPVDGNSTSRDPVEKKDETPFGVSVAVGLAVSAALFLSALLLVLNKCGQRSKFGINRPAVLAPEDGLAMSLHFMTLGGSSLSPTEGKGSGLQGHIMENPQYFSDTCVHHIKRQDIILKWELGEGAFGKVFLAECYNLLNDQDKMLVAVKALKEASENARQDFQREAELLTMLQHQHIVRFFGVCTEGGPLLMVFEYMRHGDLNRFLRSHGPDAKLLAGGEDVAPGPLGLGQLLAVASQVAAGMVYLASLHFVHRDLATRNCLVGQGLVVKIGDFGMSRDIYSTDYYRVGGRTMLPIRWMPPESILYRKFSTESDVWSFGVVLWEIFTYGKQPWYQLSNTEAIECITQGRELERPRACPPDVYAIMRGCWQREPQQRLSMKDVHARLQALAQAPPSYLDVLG
Procedure: The amount of Hsp70, Hsp32 and pTrkA was determined in the cytoplasmic fraction of HT-22 neuronal cells. For heat shock proteins, a test compound was added to the culture 24 hours prior to testing, before the cells were washed off the culture liquid with PBS. For pTrkA, a test compound was added to the culture immediately prior to the cell lysis just for 1 or 2 min, before the cells were washed off the culture liquid with PBS. Then the cells were mixed with the lysis buffer (50 mM Tris-HCl, 5 mM EDTA, 1 mM DTT, 1% Triton X-100, pH 7.5) at 4° C. and lysed for 5 min, then scraped off, transferred into a 1.5 ml centrifuge tube and centrifuged at 13000 rpm and 4° C. for 10 min. The supernatant containing cytosolic proteins was assayed by electrophoresis and immunoblotting. Proteins were separated on a 10% polyacrylamide gel (PAAG) and transferred from PAAG onto a PVDF membrane by electroelution for 45 min. Western blots were pre-incubated for 1 h in a TBST solution containing 1% Tween-20 and supplemented with 5% (w/v) skim milk. Western blots were then incubated with the primary polyclonal anti-Hsp32 antibody diluted 1:1000 or primary monoclonal anti-Hsp70 antibody diluted 1:1000 or primary monoclonal anti-phosphorylated tyrosine kinase A antibody diluted 1:1000 for 1 hour. Then the blots were washed and incubated with a secondary antibody conjugated to horseradish peroxidase (diluted 1:2000) for 1 hour. The detection of Hsp70, Hsp32 and pTrkA was carried out by the ECL reaction on a Kodak film.

[3] = test system: rats with hemorrhagic stroke; conditions: 1 mg/kg
Procedure: The experiments were carried out on male white outbred rats weighing 220-250 g. […] The local cerebral hemorrhage (post-traumatic intracerebral hemorrhage) as a hemorrhagic stroke (HS) model was produced by the method of Makarenko (Makarenko A. N. et al., Zh. V. N. D. 2002, 52(6), 765-768).
To produce the stroke, rats were anesthetized with chloral hydrate (400 mg/kg i.m.) followed by craniotomy. The cerebral tissue in the region of internal capsule was destroyed followed (in 2-3 min) by the injection of blood (0.02-0.03 ml) taken from under the animal's tongue.
The rats were monitored for 14 days after surgery. Animal's physical condition and behavioral features were recorded at 1, 3, 7 and 14 days.
The animals were distributed into 3 groups. Group 1 comprised sham-operated (SO) rats with craniotomy alone, group 2 comprised animals with HS, and group 3 comprised rats with HS treated with GK-2 (1 mg/kg at 3 h after surgery and every 48 hours thereafter for a total of 6 administrations). Group 1 and group 2 animals were treated with physiological saline in an equivalent volume.
Changes in animals' physical condition and behavior were evaluated by conventional methods. The neurological status was assessed by scoring neurological deficits according to MacGrow's stroke scoring system as modified by I. V. Gannushkina; by the muscle tone and coordination of movements monitoring methods; cognitive function was assessed by the passive avoidance conditioned reflex (PAR); and orientation and exploratory behavior by using the open field test. Also the drug's effect on the survival of rats was monitored.

[4] = test system: rats with ischemic cerebral infarction; conditions: 1 mg/kg i.p. x3

Question: For `NCCCC[C@H](NC(=O)[C@H](CCC(=O)O)NC(=O)CCC(=O)O)C(=O)NCCCCCCNC(=O)[C@H](CCCCN)NC(=O)[C@H](CCC(=O)O)NC(=O)CCC(=O)O` [GK-2, bis-(N-monosuccinyl-glutamyl-lysine) hexamethylenediamide], which “Optical density (MTT)” value (HT-22 cells [1]; 10^−8M, 24 h prior to glutamate, control 0.178 ± 0.010, glutamate 0.145 ± 0.013) is on record?
Answer: 0.179 ± 0.007^

Question: What about the “protective effect against glutamate cytotoxicity” value (HT-22 cells [1]; added 24 hours prior to glutamate) of the same compound?
Answer: protective effect

Question: And the “scopolamine-induced working memory impairment (spontaneous alternation, T-maze)” value (Wistar rats)?
Answer: could prevent

Question: What about the “Optical density (MTT)” value (HT-22 cells [2]) of the same compound?
Answer: 0.324 ± 0.070^ and 0.345 ± 0.065^

Question: And the “effect when added immediately after the oxidative stress exposure” value (HT-22 cells [2]; 10^−8 M to 10^−5 M)?
Answer: therapeutic effect

Question: And the “Optical density (MTT)” value (HT-22 cells [2]; Table 1.4, 10^−5M, 24 h before H2O2, control 0.427 ± 0.071, H2O2 0.350 ± 0.052)?
Answer: 0.422 ± 0.063^

Question: And the “Optical density (MTT)” value (HT-22 cells [2]; Table 1.4, 10^−8M, 24 h before H2O2, control 0.427 ± 0.071, H2O2 0.350 ± 0.052)?
Answer: 0.501 ± 0.109^

Question: And the “Optical density (MTT)” value (HT-22 cells [2]; Table 1.4, 10^−9M, 24 h before H2O2, control 0.427 ± 0.071, H2O2 0.350 ± 0.052)?
Answer: 0.516 ± 0.068^

Question: What about the “neuronal survival under oxidative stress” value (HT-22 cells [2]; added 24 hours prior to the stress exposure, 10^−8 M to 10^−5 M) of the same compound?
Answer: improved the neuronal survival

Question: What about the “level of phosphorylated tyrosine kinase A” value (tyrosine kinase A (TrkA)) of the same compound?
Answer: increased

Question: And the “Number of rats lost within 14 days after HS, total loss, %” value ([3]; sham 0, stroke 40)?
Answer: 0%

Question: And the “Number of rats lost within 14 days after HS, total loss, abs.” value ([3]; sham 0/10, stroke 4/10)?
Answer: 0/10^#

Question: And the “Latency to entering the dark compartment (burrowing reflex)” value ([3]; sham 13.3 ± 2.10, stroke 40.2 ± 13.2)?
Answer: 27.9 ± 10.4 s

Question: What about the “Number of rats lost, %” value ([3]; Day 1, sham 0, stroke 20) of the same compound?
Answer: 0%

Question: And the “Number of rats lost, abs.” value ([3]; Day 1, sham 0/10, stroke 2/10)?
Answer: 0/10

Question: What about the “Number of crossings into open arms” value ([3]; Day 1, sham 0.9, stroke 0) of the same compound?
Answer: 1.6 ± 0.4

Question: What about the “Number of crossings into the middle” value ([3]; Day 1, sham 1.9, stroke 0.25) of the same compound?
Answer: 1.5 ± 0.4

Question: And the “Number of crossings into closed arms” value ([3]; Day 1, sham 2.4, stroke 1.1)?
Answer: 1.9 ± 0.4

Question: What about the “Latency to entering an arm” value ([3]; Day 1, sham 6.1, stroke 62.8) of the same compound?
Answer: 4.9 ± 1.05 s

Question: What about the “Length of time spent in open arms” value ([3]; Day 1, sham 11.6, stroke 0) of the same compound?
Answer: 51.3 ± 27.9 s

Question: What about the “Length of time spent in the middle” value ([3]; Day 1, sham 46.8, stroke 95.3) of the same compound?
Answer: 27.5 ± 7.4 s

Question: And the “PAR retention: Number of rats entering the dark compartment” value (from here on “PAR retention: Number”) ([3]; Day 1, sham 60, stroke 100)?
Answer: 60%

Question: What about the “PAR retention: Latency to entering the dark compartment” value (shortened to “PAR retention: Latency”) ([3]; Day 1, sham 95.0, stroke 24.5) of the same compound?
Answer: 85.5 ± 25.9 s

Question: What about the “Length of time spent in closed arms” value ([3]; Day 1, sham 241.6, stroke 204.8) of the same compound?
Answer: 221.2 ± 28.5 s

Question: What about the “Number of rats lost, %” value ([3]; Day 3, sham 0, stroke 0) of the same compound?
Answer: 0%

Question: And the “Number of rats lost, abs.” value ([3]; Day 3, sham 0/10, stroke 0/8)?
Answer: 0/10

Question: What about the “Number of crossings into open arms” value ([3]; Day 3, sham 0.6, stroke 0.12) of the same compound?
Answer: 0.8 ± 0.2

Question: And the “Number of crossings into the middle” value ([3]; Day 3, sham 0.6, stroke 0.12)?
Answer: 0.5 ± 0.2

Question: What about the “Number of crossings into closed arms” value ([3]; Day 3, sham 1.4, stroke 0.5) of the same compound?
Answer: 1.2 ± 0.1

Question: What about the “Latency to entering an arm” value ([3]; Day 3, sham 5.1, stroke 164.4) of the same compound?
Answer: 7.1 ± 1.9 s

Question: And the “Length of time spent in open arms” value ([3]; Day 3, sham 6.2, stroke 1.3)?
Answer: 10.3 ± 4.4 s

Question: And the “Length of time spent in the middle” value ([3]; Day 3, sham 18.6, stroke 165.0)?
Answer: 15.1 ± 4.9 s

Question: What about the “PAR retention: Number” value ([3]; Day 3, sham 70, stroke 100) of the same compound?
Answer: 60%

Question: And the “PAR retention: Latency” value ([3]; Day 3, sham 74.0, stroke 18.3)?
Answer: 88.0 ± 25.8 s

Question: And the “Length of time spent in closed arms” value ([3]; Day 3, sham 275.2, stroke 133.7)?
Answer: 274.6 ± 5.7 s

Question: And the “Number of rats lost, %” value ([3]; Day 7, sham 0, stroke 12.5)?
Answer: 0%

Question: What about the “Number of rats lost, abs.” value ([3]; Day 7, sham 0/10, stroke 1/8) of the same compound?
Answer: 0/10

Question: And the “Number of crossings into the middle” value ([3]; Day 7, sham 0.7, stroke 0)?
Answer: 0.8 ± 0.4

Question: What about the “Number of crossings into open arms” value ([3]; Day 7, sham 1.4, stroke 0.4) of the same compound?
Answer: 1.1 ± 0.2

Question: And the “Number of crossings into closed arms” value ([3]; Day 7, sham 1.4, stroke 1.0)?
Answer: 1.5 ± 0.2

Question: What about the “Latency to entering an arm” value ([3]; Day 7, sham 3.0, stroke 67.4) of the same compound?
Answer: 2.5 ± 0.3 s

Question: And the “Length of time spent in the middle” value ([3]; Day 7, sham 8.3, stroke 67.4)?
Answer: 8.0 ± 2.2 s

Question: And the “Length of time spent in open arms” value ([3]; Day 7, sham 13.3, stroke 8.6)?
Answer: 9.2 ± 1.9 s

Question: What about the “PAR retention: Number” value ([3]; Day 7, sham 50, stroke 100) of the same compound?
Answer: 80%

Question: What about the “PAR retention: Latency” value ([3]; Day 7, sham 97.2, stroke 17.6) of the same compound?
Answer: 45.5 ± 22.5 s

Question: And the “Length of time spent in closed arms” value ([3]; Day 7, sham 278.4, stroke 238.3)?
Answer: 283.0 ± 2.9 s

Question: And the “Number of rats lost, %” value ([3]; Day 14, sham 0, stroke 14.3)?
Answer: 0%

Question: What about the “Number of rats lost, abs.” value ([3]; Day 14, sham 0/10, stroke 1/7) of the same compound?
Answer: 0/10

Question: What about the “Number of crossings into the middle” value ([3]; Day 14, sham 0.7, stroke 0.2) of the same compound?
Answer: 1.4 ± 0.3

Question: And the “Number of crossings into open arms” value ([3]; Day 14, sham 1.1, stroke 0.2)?
Answer: 1.1 ± 0.3

Question: What about the “Number of crossings into closed arms” value ([3]; Day 14, sham 1.3, stroke 0.8) of the same compound?
Answer: 1.6 ± 0.4

Question: And the “Latency to entering an arm” value ([3]; Day 14, sham 3.1, stroke 54.3)?
Answer: 2.6 ± 0.4 s

Question: And the “Length of time spent in the middle” value ([3]; Day 14, sham 18.1, stroke 57.7)?
Answer: 16.4 ± 8.5 s

Question: What about the “Length of time spent in open arms” value ([3]; Day 14, sham 29.7, stroke 0.8) of the same compound?
Answer: 8.8 ± 2.3 s

Question: What about the “PAR retention: Number” value ([3]; Day 14, sham 60, stroke 100) of the same compound?
Answer: 90%

Question: What about the “PAR retention: Latency” value ([3]; Day 14, sham 93.5, stroke 8.0) of the same compound?
Answer: 45.0 ± 16.4 s

Question: And the “Length of time spent in closed arms” value ([3]; Day 14, sham 252.2, stroke 241.5)?
Answer: 274.8 ± 9.9 s

Question: What about the limb-placing test score ([4]; day 4 post-ischemia, ischemic rats 3.00±0.38, intact 14) of the same compound?
Answer: 5.90±0.62

Question: What about the limb-placing test score ([4]; day 7 post-ischemia, ischemic rats 4.46±0.40, intact 14) of the same compound?
Answer: 7.67±0.75
